{"source": "patent US12661335B2", "about": "“Halogenated xanthene-containing topical anti-gram-positive bacterial ophthalmic composition and method” (Provectus Pharmatech, Inc., priority 2021, dated 2026)", "key": {"[1]": {"test_system": "Bacillus cereus 13061 ™", "test": "MIC, broth dilution method, dark condition", "assay_type": "cell-based", "conditions": "Table 1 entry 3, 24 h"}, "[2]": {"test_system": "Staphylococcus aureus 6538 ™", "test": "MIC, broth dilution method, dark condition", "assay_type": "cell-based", "conditions": "Table 1 entry 4, 24 h"}, "[3]": {"test_system": "Staphylococcus aureus subsp. Aureus BAA-1683 (a MRSA strain)", "test": "MIC, broth dilution method, dark condition", "assay_type": "cell-based", "conditions": "Table 1 entry 5, 24 h"}, "[4]": {"test_system": "Staphylococcus aureus subsp. Aureus BAA-41 ™ (a MRSA strain)", "test": "MIC, broth dilution method, dark condition", "assay_type": "cell-based", "conditions": "Table 1 entry 6, 24 h"}, "[5]": {"test_system": "Staphylococcus aureus subsp. Aureus BAA-42 ™ (a MRSA strain)", "test": "MIC, broth dilution method, dark condition", "assay_type": "cell-based", "conditions": "Table 1 entry 7, 24 h"}, "[6]": {"test_system": "Staphylococcus aureus subsp. Aureus BAA-44 ™ (a MRSA strain)", "test": "MIC, broth dilution method, dark condition", "assay_type": "cell-based", "conditions": "Table 1 entry 8, 24 h"}, "[7]": {"test_system": "Staphylococcus aureus subsp. Aureus BAA-2094 ™ (a MRSA strain)", "test": "MIC, broth dilution method, dark condition", "assay_type": "cell-based", "conditions": "Table 1 entry 9, 24 h"}, "[8]": {"test_system": "Staphylococcus aureus BAA-2313 ™ (a MRSA strain)", "test": "MIC, broth dilution method, dark condition", "assay_type": "cell-based", "conditions": "Table 1 entry 10, 24 h"}, "[9]": {"test_system": "Staphylococcus aureus AIS2006032 (a vancomycin-resistant strain)", "test": "MIC, broth dilution method, dark condition", "assay_type": "cell-based", "conditions": "Table 1 entry 12, 24 h"}, "[10]": {"test_system": "Staphylococcus aureus strain AIS 1000505 (VRS10, a vancomycin-resistant strain)", "test": "MIC, broth dilution method, dark condition", "assay_type": "cell-based", "conditions": "Table 1 entry 14, 24 h"}, "[11]": {"test_system": "Enterococcus faecalis 19433 ™", "test": "MIC, broth dilution method, dark condition", "assay_type": "cell-based", "conditions": "Table 1 entry 17, 24 h"}, "[12]": {"test_system": "Enterococcus faecium BAA-2320", "test": "MIC, broth dilution method, dark condition", "assay_type": "cell-based", "conditions": "BAA2320, Table 1 entry 19, 24 h"}, "[13]": {"test_system": "Enterococcus faecium NR-32065 (a vancomycin- resistant strain)", "test": "MIC, broth dilution method, dark condition", "assay_type": "cell-based", "conditions": "Table 1 entry 20, 24 h"}, "[14]": {"test_system": "Streptococcus salivarius subsp. Salivarius 7073 ™", "test": "MIC, broth dilution method, dark condition", "assay_type": "cell-based"}, "[15]": {"test_system": "Mycobacterium smagmatis 607 ™", "test": "MIC, broth dilution method, dark condition", "assay_type": "cell-based, Mycobacterium smegmatis"}, "[16]": {"test_system": "Mycobacterium avium subsp. Avium 2285", "test": "MIC, broth dilution method, dark condition", "assay_type": "cell-based", "conditions": "Table 1 entry 26, 24 h"}, "[17]": {"test_system": "Mycobacterium kansasii 824 ™", "test": "MIC, broth dilution method, dark condition", "assay_type": "cell-based", "conditions": "Table 1 entry 27, 24 h"}, "[18]": {"test_system": "Mycobacteroides abscessus 19977 ™", "test": "MIC, broth dilution method, dark condition", "assay_type": "cell-based", "conditions": "Table 1 entry 29, 24 h"}, "[19]": {"test_system": "Saccharomyces cerevisiae BY4743", "test": "MIC, broth dilution method, dark condition", "assay_type": "cell-based", "conditions": "Table 1 entry 30, 24 h"}, "[20]": {"test_system": "7 methicillin-resistant S. aureus (MRSA) with different SCCmec types", "test": "Bactericidal activity under fluorescent or LED light, MRSA panel", "assay_type": "cell-based, Staphylococcus aureus", "conditions": "under the fluorescent or LED light; Table 1 entries 5-11", "description": "(§1) Minimum inhibitory concentrations (MICs) were determined by broth dilution microplate alamar blue assay or by OD measurement. All compounds were stored in DMSO or saline (1 mg/100 μL concentration). This concentration was used as the stock solution for all MIC studies. Each compound from stock solution was placed in the first well of a sterile 96 well plate and a serial dilution was conducted with the culturing broth (total volume of 10 μL). The bacterial suspension at log phase (190 μL) was added to each well (total volume of 200 μL), and was incubated for 24 h at 37° C. 20 μL of resazurin (0.02%) was added to each well and incubated for 4 h, (National Committee for Clinical Laboratory Standards (NCCLS) method (pink=growth, blue=no visible growth)). The OD measurements were performed for all experiments prior to performing colorimetric assays. The absorbance of each well was also measured at 570 and 600 nm via UV-Vis."}, "[21]": {"test_system": "Gram-negative bacteria", "test": "Susceptibility of Gram-negative bacteria, dark condition", "assay_type": "cell-based", "text": "Under the dark condition RB is known to display antibacterial activity at high concentrations."}, "[22]": {"test_system": "Mycobacterial spp.", "test": "Killing concentrations for five Mycobacterial spp.", "assay_type": "cell-based, Mycobacterium spp.", "experimental": "Antibacterial activity of RB against 5 Mycobacterium spp. Was examined (entries 25-29). […] RB inhibited growth of Saccharomyces cerevisiae at higher concentrations than the bacteria under the dark condition (entry 30).\nRB kills Mycobacterial spp. At 12.5-25.0 mg/mL in illumination conditions, and at 25.0-50.0 mg/mL in dark conditions (Table 1). In both conditions, RB kills five Mycobacterial spp. At a slower rate than that of Gram-positive bacteria. RB seems to have low-permeability of mycobacterial cell walls. Due to rapid bactericidal effect of RB against Gram-positive bacteria even in the dark condition, generation of RB-resistant mutants of Gram-positive bacteria is an extremely difficult task."}, "[23]": {"test_system": "biofilms of drug-resistant S. aureus 71080 (VRS8)", "test": "Biofilm eradication assay", "assay_type": "cell-based, Staphylococcus aureus", "conditions": "fluorescent and dark conditions; concentration-dependent", "text": "Linezolid is not an effective drug in eradicating biofilms of Gram-positive bacteria, but has a beneficial effect in prevention of biofilm formations [Reiter et al., J. Med. Microbiol. 62:394-399 (2013)], and was used as a control.\nWe confirm that RB is an excellent agent to eradicate biofilms of Gram-positive bacteria, including drug-resistant strains. […] These studies indicate that RB has the potential antibacterial agent to kill drug-resistant bacteria in any growth phases."}, "[24]": {"test_system": "multidrug-resistant Fusarium keratoplasticum", "conditions": "RB about 0.1%, photoactivated by 15 minutes irradiation at 375 nm or 518 nm; cited from earlier work"}, "[25]": {"test_system": "Fusarium keratoplasticum-infected cornea", "conditions": "one patient, cited from earlier work"}, "[26]": {"test_system": "patient-isolated methicillin-resistant Staphylococcus aureus (MRSA)", "conditions": "cited from earlier work"}, "[27]": {"test_system": "vancomycin-resistant S. aureus strains", "conditions": "under either lighting condition (fluorescent or LED); entries 12-16", "description": "as §1"}, "[28]": {"test_system": "A. fumigattus", "conditions": "three days of incubation, cited from earlier work"}, "[29]": {"conditions": "concentrations below 2.0%; cited from earlier work"}}, "note": "Read-outs that look alike come from different tables or passages of the source.", "data": [{"compound": "O=C(O)c1c(Cl)c(Cl)c(Cl)c(Cl)c1-c1c2cc(I)c(=O)c(I)c-2oc2c(I)c(O)c(I)cc12", "note": "[RB, 4,5,6,7-tetrachloro-2′,4′,5′,7′-tetraiodofluorescein]", "values": [{"measurement": "MIC", "setting": "[1]", "value": 50, "unit": "µg/mL"}, {"measurement": "MIC", "setting": "[2]", "value": 50, "unit": "µg/mL"}, {"measurement": "MIC", "setting": "[3]", "value": 50, "unit": "µg/mL"}, {"measurement": "MIC", "setting": "[4]", "value": 25, "unit": "µg/mL"}, {"measurement": "MIC", "setting": "[5]", "value": 50, "unit": "µg/mL"}, {"measurement": "MIC", "setting": "[6]", "value": 50, "unit": "µg/mL"}, {"measurement": "MIC", "setting": "[7]", "value": 25, "unit": "µg/mL"}, {"measurement": "MIC", "setting": "[8]", "value": 25, "unit": "µg/mL"}, {"measurement": "MIC", "setting": "[9]", "value": 50, "unit": "µg/mL"}, {"measurement": "MIC", "setting": "[10]", "value": 25, "unit": "µg/mL"}, {"measurement": "MIC", "setting": "[11]", "value": 25, "unit": "µg/mL"}, {"measurement": "MIC", "setting": "[12]", "value": 25, "unit": "µg/mL"}, {"measurement": "MIC", "setting": "[13]", "value": 50, "unit": "µg/mL"}, {"measurement": "MIC", "setting": "[14]; Streptococcus salivarius, Table 1 entry 23, broth dilution, dark, 24 h", "value": 25, "unit": "µg/mL"}, {"measurement": "susceptibility to RB", "setting": "[14]; entry 23", "value": "susceptible"}, {"measurement": "MIC", "setting": "[15]; Mycobacterium, Table 1 entry 25, broth dilution, dark, 24 h, read-out: MIC", "value": 25, "unit": "µg/mL"}, {"measurement": "MIC", "setting": "[15]; dark condition, triplicated, read-out: MIC (μg/mL) against M. smegmatis 607 ™ (wild-type)", "value": 12.5, "unit": "µg/mL"}, {"measurement": "MIC", "setting": "[16]", "value": 50, "unit": "µg/mL"}, {"measurement": "MIC", "setting": "[17]", "value": 50, "unit": "µg/mL"}, {"measurement": "MIC", "setting": "[18]", "value": 50, "unit": "µg/mL"}, {"measurement": "MIC", "setting": "[19]", "value": 125, "unit": "µg/mL"}, {"measurement": "concentration at which all MRSA strains were killed", "setting": "[20]", "value": "0.78 to 3.1", "unit": "µg/mL"}, {"measurement": "susceptibility of Gram-negative bacteria to RB", "setting": "[21]", "value": "not susceptible"}, {"measurement": "concentration at which RB kills Mycobacterial spp.", "setting": "[22]; dark conditions", "value": "25.0 to 50.0", "unit": "mg/mL"}, {"measurement": "concentration at which RB kills Mycobacterial spp.", "setting": "[22]; illumination conditions", "value": "12.5 to 25.0", "unit": "mg/mL"}, {"measurement": "viable cells in biofilm", "setting": "[23]", "value": "significantly reduced"}, {"measurement": "fungal growth inhibition in vitro", "setting": "[24]", "value": "could inhibit the fungal growth"}, {"measurement": "time to resolution of pain post irradiation", "setting": "[25]; RB dripped on debrided cornea 30 minutes, 518 nm light 0.9 J/cm^2", "value": 36, "unit": "h"}, {"measurement": "decrease of infiltrate size in all directions", "setting": "[25]; four days after treatment", "value": "approximately 1 mm"}, {"measurement": "growth inhibition of MRSA strain 1", "setting": "[26]; RB 0.03% in dark conditions", "value": "incomplete inhibition"}, {"measurement": "growth inhibition of MRSA strain 2", "setting": "[26]; RB 0.03% in dark conditions", "value": "complete inhibition"}, {"measurement": "growth inhibition of both MRSA strains", "setting": "[26]; RB 0.1% in the dark", "value": "Complete growth inhibition"}, {"measurement": "growth inhibition of both MRSA strains", "setting": "[26]; RB 0.1 and 0.03%, ambient room light or green LED irradiation (5.4 J/cm^2)", "value": "Complete growth inhibition"}, {"measurement": "concentration at which all vancomycin-resistant strains were killed", "setting": "[27]", "value": "below 1.0 μg/mL"}, {"measurement": "Day 3 Growth Inhibition Percentage, RB + 518 nm Irradiation", "setting": "[28]; 518 nm, 5.4 J/cm^2", "value": "79.8 ± 9", "unit": "Percentage"}, {"measurement": "Day 3 Growth Inhibition Percentage, RB Only", "setting": "[28]; dark, no irradiation", "value": "6.6 ± 0.", "unit": "Percentage"}, {"measurement": "safety of RB under natural and artificial lights", "setting": "[29]", "value": "considered to be safe"}]}]}
